Active and inactive are the calls of the source. The calls are words filed in the database; no cut-off is given here.
Columns and labels:
[1] = target: T1, Retinoic acid receptor alpha (Homo sapiens, UniProt P10276); assay: Binding affinity to N-terminal His-tagged human RARalpha LBD extracted from Escherichia coli BL21 (DE3) cells assessed as dissociation constant by fluorescence quenching assay
T1 sequence (P10276 whole entry): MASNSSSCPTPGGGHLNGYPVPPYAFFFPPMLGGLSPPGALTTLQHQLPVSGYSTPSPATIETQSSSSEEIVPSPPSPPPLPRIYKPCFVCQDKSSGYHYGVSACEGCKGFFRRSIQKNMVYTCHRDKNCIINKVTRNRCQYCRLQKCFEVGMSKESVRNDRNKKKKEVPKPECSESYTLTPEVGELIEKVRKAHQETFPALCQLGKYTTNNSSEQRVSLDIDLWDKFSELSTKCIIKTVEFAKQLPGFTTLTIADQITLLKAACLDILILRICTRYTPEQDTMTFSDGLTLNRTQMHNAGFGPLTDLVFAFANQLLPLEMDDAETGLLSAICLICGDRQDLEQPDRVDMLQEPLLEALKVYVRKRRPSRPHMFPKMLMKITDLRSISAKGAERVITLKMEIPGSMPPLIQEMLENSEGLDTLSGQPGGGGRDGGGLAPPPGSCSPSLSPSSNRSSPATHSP

NB-4 [2] = assay: Induction of apoptosis in human NB4 cells at 2 uM incubated for 3 hrs by Western blot analysis; format: functional, cell-based
K562 [3] = assay: Induction of apoptosis in human K562 cells assessed as late apoptotic cells at 2 uM incubated for 24 hrs by Annexin V-FITC/PI staining based flow cytometric analysis (reference value: 5.98 %); format: functional
NB-4 [4] = assay: Antiproliferative activity against human NB4 cells assessed as inhibition of cell viability incubated for 3 days by CCK8 assay; format: functional, cell-based; conditions: dose <= 3.5 µM, time 3.0 day
[5] = target: Oxysterols receptor LXR-alpha (Homo sapiens) (UniProt Q13133); assay: Agonist activity at Gal4-fused full length LXRalpha LBD (unknown origin) transfected in HEK293T cells co-transfected with pG5luc reporter and Renilla-luc at 0.1 to 1 uM incubated for 12 hrs by luciferase reporter gene assay; format: cell-based; conditions: dose 0.1-1 µM
[6] = target: T2, Retinoic acid receptor RXR-gamma (Homo sapiens) (UniProt P48443); assay: Competitive binding affinity to Gal4-fused full length RXRgamma LBD (unknown origin) transfected in HEK293T cells co-transfected with pG5luc reporter and Renilla-luc at 0.1 to 1 uM incubated for 12 hrs in presence of ATRA by luciferase reporter gene assay; format: cell-based; conditions: dose 0.1-1 µM
T2 sequence (whole entry): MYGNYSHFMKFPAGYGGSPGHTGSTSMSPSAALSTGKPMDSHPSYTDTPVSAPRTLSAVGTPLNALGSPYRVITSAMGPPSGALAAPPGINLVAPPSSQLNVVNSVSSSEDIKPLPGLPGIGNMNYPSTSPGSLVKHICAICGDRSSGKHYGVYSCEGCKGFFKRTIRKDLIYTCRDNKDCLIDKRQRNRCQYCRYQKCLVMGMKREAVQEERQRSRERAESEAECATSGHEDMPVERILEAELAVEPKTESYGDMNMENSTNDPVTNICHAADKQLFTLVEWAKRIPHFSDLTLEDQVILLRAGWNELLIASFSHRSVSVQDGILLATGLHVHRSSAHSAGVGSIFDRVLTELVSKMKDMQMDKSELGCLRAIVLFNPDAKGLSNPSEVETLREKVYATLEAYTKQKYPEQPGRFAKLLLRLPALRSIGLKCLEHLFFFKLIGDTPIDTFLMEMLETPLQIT

NB-4 [7] = assay: Cell cycle arrest in human NB4 cells assessed as accumulation of cells at sub-G1 phase at 0.5 uM incubated for 6 days for DAPI staining based flow cytometric analysis (reference value: 6 %); format: functional; conditions: time 6 day
[8] = target: T2, Retinoic acid receptor RXR-gamma (Homo sapiens); assay: Agonist activity at Gal4-fused full length RXRgamma LBD (unknown origin) transfected in HEK293T cells co-transfected with pG5luc reporter and Renilla-luc at 0.1 to 1 uM incubated for 12 hrs by luciferase reporter gene assay; format: cell-based; conditions: dose 0.1-1 µM
HEK293T [9] = assay: Agonist activity at 3-Flag-tagged PML-RARalpha/HA-tagged RXRalpha (unknown origin) transfected in HEK293T cells co-transfected with pGL3-beta-RARE and Renilla-luc assessed as increase in transcriptional activity at 1 uM incubated for 12 hrs by luciferase reporter gene assay relative to ATRA; format: cell-based; conditions: Homo sapiens, filed as agonist
HeLa = assay: Induction of 3-flag-tagged PML-RARalpha R276E mutant (unknown origin) degradation transfected in human HeLa cells at 1 to 2 uM incubated for 24 hrs by Western blot analysis; format: cell-based; conditions: dose 1-2 µM
NB-4 [10] = assay: Induction of apoptosis in human NB4 cells assessed as necrotic cells at 1 uM incubated for 24 hrs by Annexin V-FITC/PI staining based flow cytometric analysis (reference value: 0.07 %); format: functional
NB-4 [11] = assay: Cell cycle arrest in human NB4 cells assessed as accumulation of cells at G0/G1 phase at 0.5 uM incubated for 6 days for DAPI staining based flow cytometric analysis (reference value: 52 %); format: functional; conditions: time 6 day
NB-4 [12] = assay: Induction of cell differentiation in human NB4 cells at 0.5 uM incubated for 4 to 6 days by CD11b staining based flow cytometric analysis; format: functional; conditions: time 4-6 day
HEK293T [13] = assay: Agonist activity at full length RARalpha LBD R276E mutant (unknown origin) transfected in HEK293T cells co-transfected with pG5luc reporter and Renilla-luc at 1 uM incubated for 12 hrs by luciferase reporter gene assay; format: cell-based; conditions: Homo sapiens
ATRA-resistant NB4-LR2 = assay: Induction of mitosis in human ATRA-resistant NB4-LR2 cells assessed as upregulation of pT210-PLK1 expression at 2 uM measured after 3 hrs by Western blot analysis; format: functional, cell-based
K562 [14] = assay: Induction of apoptosis in human K562 cells assessed as early apoptotic cells at 1 uM incubated for 24 hrs by Annexin V-FITC/PI staining based flow cytometric analysis (reference value: 0.91 %); format: functional
[15] = target: T3, Retinoic acid receptor gamma (Homo sapiens) (UniProt P13631); assay: Agonist activity at Gal4-fused full length RARgamma LBD (unknown origin) transfected in HEK293T cells co-transfected with pG5luc reporter and Renilla-luc assessed as transactivation at 0.1 to 1 uM incubated for 12 hrs by luciferase reporter gene assay; format: cell-based; conditions: dose 0.1-1 µM
T3 sequence (whole entry): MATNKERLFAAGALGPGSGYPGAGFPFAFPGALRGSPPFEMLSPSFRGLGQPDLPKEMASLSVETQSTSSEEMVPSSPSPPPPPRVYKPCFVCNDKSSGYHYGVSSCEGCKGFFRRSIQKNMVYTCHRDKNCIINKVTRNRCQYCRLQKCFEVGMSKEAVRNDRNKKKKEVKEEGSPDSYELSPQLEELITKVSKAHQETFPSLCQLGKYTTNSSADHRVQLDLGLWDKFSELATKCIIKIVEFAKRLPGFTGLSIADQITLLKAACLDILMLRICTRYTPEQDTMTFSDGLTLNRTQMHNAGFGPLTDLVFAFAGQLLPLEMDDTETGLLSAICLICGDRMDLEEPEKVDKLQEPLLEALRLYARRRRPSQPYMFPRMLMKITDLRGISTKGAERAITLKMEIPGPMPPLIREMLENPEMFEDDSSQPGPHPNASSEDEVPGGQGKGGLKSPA

Oxysterols receptor LXR-alpha (Homo sapiens), sequence (Q13133 whole entry, the tested form may be a part): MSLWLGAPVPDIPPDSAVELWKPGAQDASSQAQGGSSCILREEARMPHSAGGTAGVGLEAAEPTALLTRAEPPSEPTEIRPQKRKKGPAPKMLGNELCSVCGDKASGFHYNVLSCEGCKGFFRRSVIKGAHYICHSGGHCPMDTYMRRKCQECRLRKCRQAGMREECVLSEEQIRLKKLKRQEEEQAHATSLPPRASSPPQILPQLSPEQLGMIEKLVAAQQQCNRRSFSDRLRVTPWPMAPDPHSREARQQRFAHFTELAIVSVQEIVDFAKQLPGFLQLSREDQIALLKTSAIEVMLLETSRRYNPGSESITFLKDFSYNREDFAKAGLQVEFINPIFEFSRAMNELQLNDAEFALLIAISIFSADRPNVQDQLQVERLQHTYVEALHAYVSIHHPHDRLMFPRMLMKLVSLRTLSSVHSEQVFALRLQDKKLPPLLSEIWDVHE

| SMILES | Kd [1] | Activity (NB-4 [2]) | Activity (K562 [3]) | Activity (NB-4 [4]) | Activity [5] | Activity [6] | Activity (NB-4 [7]) | Activity [8] | Activity (HEK293T [9]) | Activity (HeLa) | Activity (NB-4 [10]) | Activity (NB-4 [11]) | Activity (NB-4 [12]) | Activity (HEK293T [13]) | Activity (ATRA-resistant NB4-LR2) | Activity (K562 [14]) | Activity [15] |
| --- | --- | --- | --- | --- | --- | --- | --- | --- | --- | --- | --- | --- | --- | --- | --- | --- | --- |
| Cc1cc2c(cc1C(=O)/C(Br)=C/c1ccc(C(=O)O)cc1)C(C)(C)CCC2(C)C | 433 nM | inactive | 7.92% | Dose-dependent-effect | Minimal_effect | Not active; No Significant Competitive Effect On Atra Activation Observed | 9% | Minimal_effect | > 70% | inactive | 1.3% | 71% | Active | inactive | Active | 1% | Weak_effect |
| Cc1cc2c(cc1C(=O)/C(Br)=C\c1ccc(C(=O)O)cc1)C(C)(C)CCC2(C)C | 553 nM | inactive | 7.14% | Dose-dependent-effect | Minimal_effect | Not active; No Significant Competitive Effect On Atra Activation Observed | 6% | Minimal_effect | > 70% | inactive | 0.52% | 72% | Active | inactive | Active | 0.71% | Weak_effect |

Reference: ChEMBL document CHEMBL6134780, “Halogenated retinoid derivatives as dual RARα and RXRα modulators for treating acute promyelocytic leukemia cells” (Eur J Med Chem, 2024)
